# Assay results as given in patent US5817640A (Gensia Pharmaceuticals, priority 1995, dated 1998).
# Entries after “also recorded” stand apart in the source; their conditions may differ.
# Columns and labels:
# Type in all cases: in vivo, human
# [1] = system: patients undergoing coronary artery bypass graft (CABG) surgery; test: Difficulty in weaning from cardiopulmonary bypass (Phase 2); conditions: for Weaning time (cross-clamp removal to termination of bypass): in min (unit assumed); for Weaning difficulty: balloon pump, number of patients / Weaning difficulty: return to bypass, number of patients: placebo 1, p=0.6; for Weaning difficulty: pacemaker, number of patients: placebo 2; for Weaning difficulty: pacemaker, number of patients / Weaning difficulty: other, number of patients / Weaning difficulty: other / Weaning difficulty: pacemaker: p=0.7; for Weaning difficulty: other, number of patients: placebo 5; for Weaning difficulty: vasopressors, number of patients / Weaning difficulty: vasopressors: p=0.19; for Patients with any difficulty weaning, number: placebo 13; for Weaning difficulty: other / Weaning difficulty: pacemaker: placebo […]
# Procedure: During surgery, anesthesia was maintained by continuous infusion of fentanyl and midazolam. Routine clinical parameters were recorded using standard operating room monitoring equipment. Continuous 2-lead Holter ECG and TEE data were recorded. Standard surgical procedures (e.g., aorta cross-clamping, crystalloid cardioplegia, cardio-pulmonary bypass, hypothermia) were used. Anastomoses were constructed, aorta cross-clamp removed and patients were discontinued from bypass when body temperature was 37° C. The quality of anastomosis was judged by the surgeon. Difficulty in weaning from bypass was judged by need for one or more of the following: pacemaker, return to bypass, balloon pump or vasopressor administration. Hemodynamic measurements, including heart rate, arterial blood pressure, pulmonary capillary wedge pressure and cardiac output, were recorded before sternotomy, 15 and 30 min after bypass and upon chest closure. Radial artery and pulmonary artery pressures, myocardial and whole body temperature, O2 saturation, end-tidal CO2 and arterial blood gases were measured, and ECG recordings were obtained as clinically indicated. Hemodynamic variables (blood pressure, heart rate, pulmonary capillary wedge pressure) were controlled within 20% of baseline using prescribed regimens.
# The incidence of adverse clinical outcomes, such as cardiac death (death of patient attributable to primarily cardiac causes, non-fatal transmural MI (as measured by the appearance of a new Q-wave on 12-lead ECG plus a CK-MB value of ≥50 units), non-transmural MI (CK-MB value of ≥50 units), congestive heart failure (low cardiac output requiring intra-aortic balloon pump or left ventricular assist device) or life-threatening dysrhythmia (ventricular fibrillation, or ventricular tachycardia requiring cardioversion or drug treatment) was compared between the placebo and treatment groups. For the diagnosis of myocardial infarction, ECG tracings and CK-MB values were assessed centrally by observers blinded to treatment. The difficulty of weaning the patient from bypass, if any, was compared between placebo and treatment groups by noting need for one or more of the following: pacemaker, return to bypass, balloon pump or use of vasopressors.
# 8. Difficulty in Weaning. Patients were considered to have difficulty in weaning if they needed one or more of the following interventions: pacemaker, return to bypass, balloon pump or use of vasopressors. The number of patients receiving each of the above interventions was analyzed using a X^2 and Fisher's exact test, as was the number of patients classified as having difficulty in weaning. In addition, the time to weaning (defined as time from cross-clamp removal to end of bypass) in the patients experiencing difficulty were compared by a 1-way analysis of variance.
# As noted, patients were determined as being difficult to remove from cardiopulmonary bypass if they required one or more of the following interventions: insertion of a pacemaker, return to bypass, use of a balloon pump or administration of vasopressors, or another intervention which the investigation determines is indicative of difficulty in weaning. […] When a combination of the high and low dose groups were compared to placebo (Table 9b), the reduced need for vasopressor support approached statistical significance (p=0.08). […] There were no differences in any of the weaning difficulty parameters discussed above between the high and low dose groups (Table 9c).
# [2] = Plasma AICA riboside concentrations / pharmacokinetics in CABG patients (Phase 2)
# Procedure: 10. Plasma Levels. […] Individual values and group means were tabulated and drug clearance calculated. Dose proportionality was assessed.
# The data are also presented graphically in FIG. 3.
# [3] = Uric acid monitoring, Phase 3 CABG trial; conditions: treated patients, data not shown
# Source text: The uric acid concentrations of all patients in the study were monitored.
# [4] = system: patients undergoing coronary artery bypass graft (CABG) surgery; test: Incidence of MI and combined clinical outcome by plasma level of AICA riboside, Phase 3
# Source text: The data in Table 13 reflect diagnosis of MI by both ECG and CK-MB (as described above with respect to Table 12).
# [5] = AICA riboside plasma level <0.25 μg/ml, n=209
# [6] = AICA riboside plasma level <0.25 μg/ml, n=211
# [7] = plasma level 0.25-2.00 μg/ml, n=83
# [8] = plasma level 0.25-2.00 μg/ml, n=89
# [9] = plasma level 2.00-3.00 μg/ml, n=114
# [10] = plasma level 2.00-3.00 μg/ml, n=116
# [11] = plasma level 3.00-4.00 μg/ml, n=44
# [12] = plasma level 4.00-5.00 μg/ml, n=61
# [13] = plasma level 5.00-6.00 μg/ml, n=49
# [14] = plasma level 5.00-6.00 μg/ml, n=50
smiles,measurement,setting,value
"NC(=O)c1ncn([C@@H]2O[C@H](CO)[C@@H](O)[C@H]2O)c1N [AICA riboside, 5-amino-1-β-D-ribofuranosyl-imidazole-4-carboxamide]",Weaning time (cross-clamp removal to termination of bypass),"[1]; 0.05 mg/kg/min, n=41, all patients, placebo 23 +/- 2.9",20 +/- 2.2
same,"Weaning difficulty: balloon pump, number of patients","[1]; 0.05 mg/kg/min, n=41",0 patients
same,"Weaning difficulty: return to bypass, number of patients","[1]; 0.05 mg/kg/min, n=41",0 patients
same,"Weaning difficulty: pacemaker, number of patients","[1]; 0.05 mg/kg/min, n=41",4 patients
same,"Weaning difficulty: other, number of patients","[1]; 0.05 mg/kg/min, n=41",3 patients
same,"Weaning difficulty: vasopressors, number of patients","[1]; 0.05 mg/kg/min, n=41, placebo 8",3 patients
same,"Patients with any difficulty weaning, number","[1]; 0.05 mg/kg/min, n=41, p=0.17",7 patients
same,Weaning difficulty: vasopressors,"[1]; 0.05 mg/kg/min, n=41, placebo 21.6%",7.3%
same,Patients with any difficulty weaning,"[1]; 0.05 mg/kg/min, n=41, placebo 35%, p=0.17",17%
same,Weaning difficulty: other,"[1]; 0.05 mg/kg/min, n=41",7.3%
same,Weaning difficulty: pacemaker,"[1]; 0.05 mg/kg/min, n=41",9.8%
same,Weaning time (cross-clamp removal to termination of bypass),"[1]; 0.05 mg/kg/min, patients with difficulty, placebo 31.8 +/- 6.3",20 +/- 4.6
same,Weaning time (cross-clamp removal to termination of bypass),"[1]; 0.1 mg/kg/min, n=34, all patients, placebo 23 +/- 2.9",17 +/- 1.8
same,"Weaning difficulty: balloon pump, number of patients","[1]; 0.10 mg/kg/min, n=35",0 patients
same,"Weaning difficulty: return to bypass, number of patients","[1]; 0.10 mg/kg/min, n=35",0 patients
same,"Weaning difficulty: pacemaker, number of patients","[1]; 0.10 mg/kg/min, n=35",4 patients
same,"Weaning difficulty: other, number of patients","[1]; 0.10 mg/kg/min, n=35",4 patients
same,"Weaning difficulty: vasopressors, number of patients","[1]; 0.10 mg/kg/min, n=35, placebo 8",4 patients
same,"Patients with any difficulty weaning, number","[1]; 0.10 mg/kg/min, n=35, p=0.17",8 patients
same,Weaning difficulty: vasopressors,"[1]; 0.10 mg/kg/min, n=35, placebo 21.6%",11.4%
same,Patients with any difficulty weaning,"[1]; 0.10 mg/kg/min, n=35, placebo 35%, p=0.17",23%
same,Weaning difficulty: other,"[1]; 0.10 mg/kg/min, n=35",11.4%
same,Weaning difficulty: pacemaker,"[1]; 0.10 mg/kg/min, n=35",11.4%
same,Weaning time (cross-clamp removal to termination of bypass),"[1]; 0.1 mg/kg/min, patients with difficulty, placebo 31.8 +/- 6.3",20.8 +/- 4.2
same,"Patients with any difficulty weaning, number","[1]; 0.05 + 0.10 mg/kg/min combined, n=76, p=0.06",15 patients
same,Patients with any difficulty weaning,"[1]; 0.05 + 0.10 mg/kg/min combined, n=76, placebo 35.1%, p=0.06",19.7%
same,"Vasopressors required, number of patients","[1]; 0.05 + 0.10 mg/kg/min combined, placebo 8, p=0.08",7 patients
same,Vasopressors required,"[1]; 0.05 + 0.10 mg/kg/min combined, placebo 21.6%, p=0.08",9.2%
same,Need for vasopressor support vs placebo,"[1]; low and high dose groups, p=0.19 separately, p=0.08 combined",strong trend towards a reduced need for vasopressor support; also recorded: less likely to receive vasopressor assistance
same,Weaning difficulty vs placebo,"[1]; p=0.17 when compared separately, p=0.06 combined dose groups",towards a reduction in weaning difficulty in the drug treated groups
same,Steady state plasma concentration,[2]; 0.05 mg/kg/min,approximately 2.5 μg/ml
same,Mean (±SEM) plasma AICA riboside concentration,"[2]; 0.05 mg/kg/min constant infusion, n=40, pre-bypass",2.66 ± 0.30 µg/mL
same,Mean (±SEM) plasma AICA riboside concentration,"[2]; 0.05 mg/kg/min, n=40, 1 hour post-infusion",0.32 ± 0.63 µg/mL
same,Mean (±SEM) plasma AICA riboside concentration,"[2]; 0.05 mg/kg/min, n=40, end infusion",1.83 ± 0.13 µg/mL
same,Mean (±SEM) plasma AICA riboside concentration,"[2]; 0.05 mg/kg/min, n=40, post-bypass",2.49 ± 0.13 µg/mL
same,Steady state plasma concentration,[2]; 0.1 mg/kg/min,~5.0 µg/mL
same,Mean (±SEM) plasma AICA riboside concentration,"[2]; 0.10 mg/kg/min constant infusion, n=31, pre-bypass",5.11 ± 0.20 µg/mL
same,Mean (±SEM) plasma AICA riboside concentration,"[2]; 0.10 mg/kg/min, n=31, 1 hour post-infusion",0.45 ± 0.03 µg/mL
same,Mean (±SEM) plasma AICA riboside concentration,"[2]; 0.10 mg/kg/min, n=31, end infusion",3.67 ± 0.30 µg/mL
same,Mean (±SEM) plasma AICA riboside concentration,"[2]; 0.10 mg/kg/min, n=31, post-bypass",5.47 ± 0.19 µg/mL
same,"Kinetics (linearity, dose proportionality)","[2]; CABG patients, 0.05 and 0.1 mg/kg/min infusion",exhibits linear kinetics; also recorded: good dose proportionality
same,Plasma concentration as % of steady state level after end of infusion,[2]; one hour after infusion terminated,10%
same,Change of CLp during post-bypass period,[2]; post-bypass,trend for the CLp to increase
same,"Dose needed in anesthetized patients, % less than in non-anesthetized patients",[2]; to achieve desired blood concentration levels,20-50%
same,Crystalluria,[3],no clinically significant crystalluria
same,Plasma uric acid concentrations vs normal range,[3],"generally remained in, or close to, the normal range"
same,"Uric acid concentrations, dose relation",[3],clear dose related increase in uric acid concentrations
same,Incidence of myocardial infarction,[4]; [5],4.3%
same,"Myocardial infarction, number of patients",[4]; [5],9 patients
same,"Combined clinical outcome, number of patients",[4]; [6],29 patients
same,Incidence of combined clinical outcome,[4]; [6],13.7%
same,Most effective plasma level of AICA riboside,[4]; from Table 13,3 to 6 µg/mL
same,Incidence of myocardial infarction,[4]; [7],2.4%
same,"Myocardial infarction, number of patients",[4]; [7],2 patients
same,"Combined clinical outcome, number of patients",[4]; [8],9 patients
same,Incidence of combined clinical outcome,[4]; [8],10.1%
same,Incidence of myocardial infarction,[4]; [9],4.4%
same,"Myocardial infarction, number of patients",[4]; [9],5 patients
same,"Combined clinical outcome, number of patients",[4]; [10],11 patients
same,Incidence of combined clinical outcome,[4]; [10],9.5%
same,"Combined clinical outcome, number of patients",[4]; [11],3 patients
same,Incidence of combined clinical outcome,[4]; [11],6.8%
same,Incidence of myocardial infarction,[4]; [11],2.3%
same,"Myocardial infarction, number of patients",[4]; [11],1 patients
same,"Combined clinical outcome, number of patients",[4]; [12],2 patients
same,Incidence of combined clinical outcome,[4]; [12],3.3%
same,"Myocardial infarction, number of patients",[4]; [12],0 patients
same,Incidence of myocardial infarction,[4]; [13],4.1%
same,"Myocardial infarction, number of patients",[4]; [13],2 patients
same,"Combined clinical outcome, number of patients",[4]; [14],3 patients
same,Incidence of combined clinical outcome,[4]; [14],6.0%
same,Incidence of myocardial infarction,"[4]; plasma level >6.00 μg/ml, n=44",2.3%
same,"Myocardial infarction, number of patients","[4]; plasma level >6.00 μg/ml, n=44",1 patients
same,"Combined clinical outcome, number of patients","[4]; plasma level >6.00 μg/ml, n=46",4 patients
same,Incidence of combined clinical outcome,"[4]; plasma level >6.00 μg/ml, n=46",8.7%
